Measured values as given in US12030840B2 (GENFIT, priority 2018, dated 2024).
Where a chain is given by its changes, count along the chain named. In brackets after ≈: the same amount, converted by molar mass. Where a name gives a salt, the structure may show the parent alone. Read-outs that look alike come from different tables or passages of the source.

Assays:
physchem = details: for solubility at 24 h: 20 °C, thermodynamic from solid
Procedure: The solubility of the compound is determined in buffered aqueous solution at pH 1, pH 3, pH 5 and pH 7.4.
The saturation is obtained by adding an excess of active ingredient to a given volume of test medium. The suspension is stirred by orbital stirring over 24 hours at […], away from light.
After 30 min, 1 hour, 2 hours and/or 24 hours, the supernatant is isolated by centrifugation and diluted in a solvent mixture allowing its injection into the chromatographic system. The concentration (expressed as parent concentration) in solution for each medium is determined by HPLC (external standardization).
After 24 hours an XRPD analysis is performed on the insoluble fraction isolated by centrifugation.
• pH 1 HCl/KCl buffer: a mixture of 0.373 g of KCl and 13.4 ml of HCl in a 100 mL volumetric flask was completed to 100 mL with de-ionized water. • pH 3 citrate buffer: 1.051 g of citric acid monohydrate was dissolved in 250 ml of de-ionized water. The pH was adjusted to 3 with NaOH. • pH 5 citrate/phosphate buffer: Solution I was prepared: 2.8392 g of Na2HPO4 in 100 mL volumetric flask was completed to 100 mL with de-ionized water. Solution II was prepared: 2.1004 g of citric acid monohydrate in a 100 mL volumetric flask was completed to 100 mL with de-ionized water. To 48.5 mL of Solution II were added 51.5 mL of Solution I. • pH 7.4 phosphate buffer: a mixture of 38 g of Na2HPO4, 12H2O and 3.8 g of Na2HPO4, 2H2O in a 1 L volumetric flask was completed to 1 L with de-ionized water. Salt Screening Macroscopic Observation

[1] = Photostability protocol (UV exposure, ICH Q1B, SUNTEST, HPLC); type: physicochemical; details: after 17 h exposure to UV light; for Elafibranor degradation (%): HPLC-UV at 350 nm
Procedure: In order to make the difference between the degradation only due to temperature within the SUNTEST apparatus chamber and the degradation only due to UV exposure, a second elafibranor salt sample protected from light is also placed in the SUNTEST chamber. All samples are then analyzed by HPLC.
The crystallized samples were stressed by exposure to UV light according to the photostatbility protocol described above.

PPARalpha [2] = target: T1, PPARalpha (Homo sapiens, UniProt Q07869); test: Gal4-PPAR transactivation assay in COS-7 cells, human PPARalpha; type: cell-based
T1 sequence (Q07869 200-468 limits assumed): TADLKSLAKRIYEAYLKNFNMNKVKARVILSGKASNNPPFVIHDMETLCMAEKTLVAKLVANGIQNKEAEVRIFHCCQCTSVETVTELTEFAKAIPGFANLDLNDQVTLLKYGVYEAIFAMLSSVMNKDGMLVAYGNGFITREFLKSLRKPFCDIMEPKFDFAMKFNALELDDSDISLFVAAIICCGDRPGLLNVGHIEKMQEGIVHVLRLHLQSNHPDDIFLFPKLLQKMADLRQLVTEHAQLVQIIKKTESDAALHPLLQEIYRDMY
Procedure: (§1) Monkey kidney COS-7 cells were maintained in standard culture conditions (Dulbecco's modified Eagle's minimal medium: DMEM) supplemented with 10% fetal calf serum, 1% sodium pyruvate, 1% essential amino acids, 1% L-glutamine and 1% antibiotics at 37° C. in a humidified atmosphere of 5% CO2 and 95% air. The medium was changed every 2 days. All tested compounds were dissolved in DMSO. Cells were transfected using 4 μl JetPEI™ (Polyplus transfection)/μg of DNA. Briefly, 150 ng of DNA per well was transfected in a 96 well culture plate of adherent COS-7 cells (respecting the 10:1 ratio between the Gal4(RE)_TkpGL3 plasmid and the plasmid coding the nuclear receptor of interest (pGal4-hPPARalpha, pGal4-hPPARgamma, pGal4-hPPARdelta, pGal4-mPPARalpha, pGal4-mPPARgamma and pGal4-mPPARdelta) or of the pGal4phi plasmid (negative control). Cells were enzymatically detached and seeded in 96 well plates at the density of 40,000 cells per well and then incubated for 24 hours at 37° C. The activation was performed in DMEM 0% fetal calf serum, supplemented with the tested compounds (compound of interest or reference molecules) or vehicle (DMSO 0.1%). The luciferase activity was measured with the Steady-Glo Luciferase Assay System (Promega, Madison, WI). All transactivation experiments were performed at least 2 times. Activation curves were realized using Prism® (from GraphPad) software. Prism® was also used to fit the standard curves and then determine the specific EC50 values, maximum effect versus reference molecules and Hill slope. The Emax effect of each new ligand is represented as the ratio of the maximal induction (plateau) obtained with the new ligand and the induction obtained with the corresponding reference compound. The reference compounds for PPARalpha, PPARgamma and PPARdelta were fenofibrate (100 μM), rosiglitazone (10 μM) and GW501516 (1 μM), respectively.

PPARgamma [3] = target: T2, PPARgamma (Homo sapiens, UniProt P37231); test: Gal4-PPAR transactivation assay in COS-7 cells, human PPARgamma; type: cell-based
T2 sequence (P37231 238-505 limits assumed): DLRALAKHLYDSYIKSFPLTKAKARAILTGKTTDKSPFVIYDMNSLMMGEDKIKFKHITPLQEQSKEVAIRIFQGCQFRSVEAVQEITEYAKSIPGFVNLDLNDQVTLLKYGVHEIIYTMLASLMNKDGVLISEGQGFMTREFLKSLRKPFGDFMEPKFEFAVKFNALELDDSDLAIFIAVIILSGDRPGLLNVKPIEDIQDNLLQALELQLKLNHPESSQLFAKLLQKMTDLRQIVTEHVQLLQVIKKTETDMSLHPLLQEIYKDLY
Procedure: as §1

PPARalpha [4] = target: T3, PPARalpha (Mus musculus, UniProt P23204); test: Gal4-PPAR transactivation assay in COS-7 cells, murine PPARalpha; type: cell-based; details: Murin
T3 sequence (P23204 200-468 limits assumed): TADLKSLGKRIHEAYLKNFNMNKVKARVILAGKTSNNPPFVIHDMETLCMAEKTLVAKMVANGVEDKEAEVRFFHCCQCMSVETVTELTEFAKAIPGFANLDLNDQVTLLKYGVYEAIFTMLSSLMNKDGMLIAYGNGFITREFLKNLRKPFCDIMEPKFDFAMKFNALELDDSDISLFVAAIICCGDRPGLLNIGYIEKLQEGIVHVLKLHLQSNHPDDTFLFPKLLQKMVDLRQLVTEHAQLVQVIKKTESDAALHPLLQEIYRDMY
Procedure: as §1

PPARgamma [5] = target: T4, PPARgamma (Mus musculus, UniProt P37238); test: Gal4-PPAR transactivation assay in COS-7 cells, murine PPARgamma; type: cell-based; details: Murin
T4 sequence (P37238 238-505 limits assumed): T2 sequence (P37231 238-505 limits assumed) with S93N, V98I, S146N, L226V, Q245H
Procedure: as §1

[6] = listed as Elafibranor L-Arginine salt

Structure (SMILES): CSc1ccc(C(=O)/C=C/c2cc(C)c(OC(C)(C)C(=O)O)c(C)c2)cc1 [Elafibranor, reference compound]
- solubility at 24 h (physchem; pH 1, simulated gastric fluid): < 1 µg/mL
- solubility at 24 h (physchem; pH 3, aqueous buffer): < 1 µg/mL
- solubility at 24 h (physchem; pH 5, aqueous buffer): 1 µg/mL (≈ 2.6 µM)
- solubility at 24 h (physchem; pH 7.4, aqueous buffer): 130 µg/mL (≈ 338 µM)
- Final pH of the saturated solution (physchem; pH 1 HCl/KCl buffer): 0.7
- Final pH of the saturated solution (physchem; pH 3 citrate buffer): 2.9
- Final pH of the saturated solution (physchem; pH 5 citrate/phosphate buffer): 4.9
- Final pH of the saturated solution (physchem; pH 7.4 phosphate buffer): 7.3
- Elafibranor degradation (%) ([1]; listed as Free acid): 27%
- Elafibranor degradation (%) ([1]; listed as elafibranor free acid): 27%
- EC50 (PPARalpha [2]): 0.057 µM
- EC50 (PPARgamma [3]): 0.43 µM
- EC50 (PPARalpha [4]): 0.095 µM
- EC50 (PPARgamma [5]): 0.58 µM

Structure (SMILES): CSc1ccc(C(=O)/C=C/c2cc(C)c(OC(C)(C)C(=O)O)c(C)c2)cc1.NC(CO)(CO)CO [Form I, Elafibranor tromethamine salt]
- Final pH of the saturated solution (physchem; pH 1 HCl/KCl buffer): 0.9
- Soluble fraction (mg/mL) at 20° C. at 24 hours (physchem; pH 1 HCl/KCl buffer): <0.001 mg/mL
- Final pH of the saturated solution (physchem; pH 3 citrate buffer): 3.1
- Soluble fraction (mg/mL) at 20° C. at 24 hours (physchem; pH 3 citrate buffer): <0.001 mg/mL
- Final pH of the saturated solution (physchem; pH 5 citrate/phosphate buffer): 5.1
- Soluble fraction (mg/mL) at 20° C. at 24 hours (physchem; pH 5 citrate/phosphate buffer): 0.003 mg/mL
- Solubility compared to elafibranor (physchem; pH 7.4): more soluble than elafibranor
- Final pH of the saturated solution (physchem; pH 7.4 phosphate buffer): 7.3
- Soluble fraction (mg/mL) at 20° C. at 24 hours (physchem; pH 7.4 phosphate buffer): 0.19 mg/mL
- Photostability compared to elafibranor free acid [1]: significant improvement of the photostability
- Elafibranor degradation (%) [1]: 10%
- EC50 (PPARalpha [2]): 0.068 µM
- EC50 (PPARgamma [3]): 0.49 µM
- EC50 (PPARalpha [4]): 0.103 µM
- EC50 (PPARgamma [5]): 0.73 µM

Structure (SMILES): CSc1ccc(C(=O)/C=C/c2cc(C)c(OC(C)(C)C(=O)O)c(C)c2)cc1 [Form II, Elafibranor potassium salt]
- Photostability compared to elafibranor free acid [1]: significant improvement of the photostability
- Elafibranor degradation (%) ([1]; listed as Potassium salt (Form II), potassium salt): 13%
- Elafibranor degradation (%) ([1]; potassium salt): 13%
- EC50 (PPARalpha [2]): 0.064 µM
- EC50 (PPARgamma [3]): 0.43 µM
- EC50 (PPARalpha [4]): 0.096 µM
- EC50 (PPARgamma [5]): 0.59 µM

Structure (SMILES): CSc1ccc(C(=O)/C=C/c2cc(C)c(OC(C)(C)C(=O)O)c(C)c2)cc1 [Form III, Elafibranor sodium salt]
- Elafibranor degradation (%) ([1]; sodium salt): 89%
- EC50 (PPARalpha [2]): 0.077 µM
- EC50 (PPARgamma [3]): 0.56 µM
- EC50 (PPARalpha [4]): 0.133 µM
- EC50 (PPARgamma [5]): 0.77 µM

Structure (SMILES): CSc1ccc(C(=O)/C=C/c2cc(C)c(OC(C)(C)C(=O)O)c(C)c2)cc1.N=C(N)NCCC[C@H](N)C(=O)O [Form IV, Elafibranor L-arginate salt]
- Photostability compared to elafibranor free acid [1]: significant improvement of the photostability
- Elafibranor degradation (%) [1]: 4%
- EC50 (PPARalpha [2]; [6]): 0.054 µM
- EC50 (PPARgamma [3]; [6]): 0.32 µM
- EC50 (PPARalpha [4]; [6]): 0.093 µM
- EC50 (PPARgamma [5]; [6]): 0.58 µM
